In test [1] the target is BaF3-Tel-FGFR4 cells (TEL fused to cytoplasmic domain of FGFR4) (Homo sapiens, UniProt P22455). Put plainly: In vitro cellular kinase assay for FGFR4 (BaF3-Tel-FGFR4, MSD capture ELISA of tyrosine phosphorylation). Particulars: 1 hour incubation. Background: An ELISA detects its analyte on a solid surface through an enzyme-linked reagent.
The target in test [2] is T1, FGFR4 (GST-FGFR4(388-802)) (Homo sapiens, UniProt P22455).
T1 construct: GST-FGFR4(388-802); GST (N); made in house; host or cells: insect cells
T1 sequence (P22455 388-802): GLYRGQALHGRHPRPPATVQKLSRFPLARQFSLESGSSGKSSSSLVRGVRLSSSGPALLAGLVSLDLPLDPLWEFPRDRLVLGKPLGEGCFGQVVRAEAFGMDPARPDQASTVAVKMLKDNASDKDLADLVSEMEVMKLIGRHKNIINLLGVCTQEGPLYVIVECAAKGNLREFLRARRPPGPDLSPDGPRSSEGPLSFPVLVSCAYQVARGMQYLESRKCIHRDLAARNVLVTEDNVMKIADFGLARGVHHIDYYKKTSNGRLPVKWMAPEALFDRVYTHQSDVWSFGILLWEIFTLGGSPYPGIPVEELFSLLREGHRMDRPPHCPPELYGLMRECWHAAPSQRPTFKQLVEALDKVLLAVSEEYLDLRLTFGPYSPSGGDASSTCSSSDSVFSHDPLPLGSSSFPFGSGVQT
Put plainly: In-vitro biochemical kinase assay for FGFR4 (Caliper mobility shift). Particulars: 60 minutes at 30° C. The method, then: In-Vitro Biochemical Kinase Assays for FGFR4
All assays were performed in 384 well microtiter plates. Each assay plate contained 8-point serial dilutions for 40 test compounds, as well as four 8-point serial dilutions of staurosporine as reference compound, plus 16 high and 16 low controls.
(§1) Liquid handling and incubation steps were done on an Innovadyne Nanodrop Express equipped with a robotic arm (Thermo CatX, Caliper Twister II) and an incubator (Liconic STX40, Thermo Cytomat 2C450). The assay plates were prepared by addition of 50 nI per well of compound solution in 90% DMSO. […] Kinase reactions were incubated at 30° C. for 60 minutes and subsequently terminated by addition of 16 μl per well of stop solution (100 mM HEPES pH 7.5, 5% DMSO, 0.1% Caliper coating reagent, 10 mM EDTA, and 0.015% Brij35). Plates with terminated kinase reactions were transferred to the Caliper LC3000 workstations for reading. Phosphorylated and unphosphorylated peptides were separated using the Caliper microfluidic mobility shift technology. Briefly, samples from terminated kinase reactions were applied to the chip. Analytes are transported through the chip by constant buffer flow and the migration of the substrate peptide is monitored by the fluorescence signal of its label. Phosphorylated peptide (product) and unphosphorylated peptide (substrate) are separated in an electric field by their charge/mass ratio. Kinase activities were calculated from the amounts of formed phospho-peptide. IC50 values were determined from percent inhibition values at different compound concentrations by non-linear regression analysis.
Preparation of Compound Dilutions
Test compounds were dissolved in DMSO (10 mM) and transferred into 1.4 mL flat bottom or V-shaped Matrix tubes carrying a unique 2D matrix. The stock solutions were stored at […] if not used immediately. For the test procedure the vials were defrosted and identified by a scanner whereby a working sheet was generated that guided the subsequent working steps.
Compound dilutions were made in 96 well plates. This format enabled the assay of maximally 40 individual test compounds at 8 concentrations (single points) including 4 reference compounds. The dilution protocol included the production of “pre-dilution plates”, “master plates” and “assay plates”.
96 polypropylene well plates were used as pre-dilution plates. A total of 4 pre-dilution plates were prepared including 10 test compounds each on the plate positions A1-A10, one standard compound at A11 and one DMSO control at A12. All dilution steps were done on a HamiltonSTAR robot.
These plates were used directly for the assay which was performed in a total volume of 9.05 μL.

In test [3] the test system is HuH-7 hepatocellular carcinoma cells. The test can be described thus: CellTiter Glo (CTG) proliferation/viability assay. The test is classed as cell-based. Particulars: HuH-7 cells, 3 days, half-maximal growth inhibition (GI50), read-out: HUH7 proliferation CTG. The method, then: CellTiter Glo (CTG) Assay:
The functional effect of compounds on cell proliferation is assessed using HuH-7 hepatocellular carcinoma cells obtained from the Japanese Collection of Research Bioresources Cell Bank (Cat# JCRB0403) and cultured in the vendor-recommended medium (DMEM high glucose (Amimed Cat#1-26F01-I), 10% foetal calf serum (Invitrogen Cat#16140-071), 1 mM sodium pyruvate (Amimed Cat#5-60F00-H), 1× Penicillin/Streptomycin (Amimed Cat#4-01F00-H)) at 37° C. in a humidified 5% CO2 incubator. Compound-mediated suppression of cell proliferation/viability is assessed by quantification of cellular ATP levels using the CellTiter-Glo (CTG) reagent (Promega, Cat# G7573). Briefly, cells are seeded at 3′000 cells/well/80 μl fresh medium into tissue-culture-treated 96-well plates (Costar Cat#3904), followed by addition of 20 μl medium containing compound dilutions at 5-fold their final intended concentration. Dose-response effects are assessed by 3-fold serial dilutions of the test compound, starting at 10 μM. Following incubation of the cells for 3 days at 37° C. and 5% CO2, the effect of inhibitors on cell viability is quantified following addition of 50 μl CTG and luminescence measurement (integration time: 500 ms) as per vendor manual, using a correspondingly equipped multi-mode plate reader (M200Pro, TECAN, Switzerland). For data analysis, the assay background value determined in wells containing medium, but no cells, is subtracted from all data points. To enable differentiation of cytotoxic from cytostatic compounds, the number of viable cells is assessed relative to that observed at the time of compound addition using a separate cell plate (day 0). The effect of a particular test compound concentration on cell proliferation/viability is expressed as percentage of the background- and day 0-corrected luminescence reading obtained for cells treated with vehicle only (DMSO, 0.1% f.c.), which is set as 100%, whereas the luminescence reading for wells containing medium only, but no cells, is set as −100%. Compound concentrations leading to half-maximal growth inhibition (GI50) are determined using standard four parameter curve fitting (XLfit 5.2., IDBS, UK).
On the technique in general: ATP-based viability assays read luminescence as a measure of living cells.

A further test concerns the target T2, FGFR2 (406-821) (Homo sapiens, UniProt P21802).
T2 construct: FGFR2 (406-821)
Put plainly: In vitro biochemical assay for FGFR2. The method, then:
as §1
(§2) In vitro biochemical assays for FGFR1 (407-822), FGFR2 (406-821) and FGFR3 (411-806) were conducted in a similar manner to the in vitro biochemical assay for FGFR4 described above, using the indicated portions of the kinase domains. The following examples all produced IC50 values >10000 nM in the biochemical FGFR1, FGFR2 and FGFR3 assays: 2, 3, 4, 11, 13, 16, 17, 18, 20, 28, 30.

Another test addresses T3, FGFR1 (407-822) (Homo sapiens, UniProt P11362).
T3 construct: FGFR1 (407-822)
The test can be described thus: In vitro biochemical assay for FGFR1. The procedure:
as §1, §2

The next test concerns the target T4, FGFR3 (411-806) (Homo sapiens, UniProt P22607).
T4 construct: FGFR3 (411-806)
Put plainly: In vitro biochemical assay for FGFR3. The method, then: as §1, §2

Read-outs that look alike come from different tables or passages of the source.

Chain of BaF3-Tel-FGFR4 cells (TEL fused to cytoplasmic domain of FGFR4) (P22455 with tags, fused parts or gaps): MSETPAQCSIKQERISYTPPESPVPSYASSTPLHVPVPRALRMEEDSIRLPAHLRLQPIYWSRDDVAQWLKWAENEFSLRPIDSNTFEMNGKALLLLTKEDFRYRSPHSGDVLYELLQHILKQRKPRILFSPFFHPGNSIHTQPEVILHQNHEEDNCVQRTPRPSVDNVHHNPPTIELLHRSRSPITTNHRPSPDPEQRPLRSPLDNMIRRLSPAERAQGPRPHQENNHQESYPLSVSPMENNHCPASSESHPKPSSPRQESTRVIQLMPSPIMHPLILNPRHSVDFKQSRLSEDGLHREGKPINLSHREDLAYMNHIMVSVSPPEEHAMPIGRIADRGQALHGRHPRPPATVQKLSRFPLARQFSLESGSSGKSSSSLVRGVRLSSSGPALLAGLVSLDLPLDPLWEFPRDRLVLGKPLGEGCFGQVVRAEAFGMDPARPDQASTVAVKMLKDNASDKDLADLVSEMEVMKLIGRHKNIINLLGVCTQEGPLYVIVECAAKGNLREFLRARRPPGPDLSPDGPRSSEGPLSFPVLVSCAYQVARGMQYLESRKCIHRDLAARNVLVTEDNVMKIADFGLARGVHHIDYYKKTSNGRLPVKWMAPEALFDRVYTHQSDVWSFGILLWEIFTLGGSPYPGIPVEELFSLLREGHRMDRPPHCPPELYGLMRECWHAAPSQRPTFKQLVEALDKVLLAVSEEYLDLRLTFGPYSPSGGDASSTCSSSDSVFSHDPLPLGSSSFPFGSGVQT
T2 sequence (P21802 406-821): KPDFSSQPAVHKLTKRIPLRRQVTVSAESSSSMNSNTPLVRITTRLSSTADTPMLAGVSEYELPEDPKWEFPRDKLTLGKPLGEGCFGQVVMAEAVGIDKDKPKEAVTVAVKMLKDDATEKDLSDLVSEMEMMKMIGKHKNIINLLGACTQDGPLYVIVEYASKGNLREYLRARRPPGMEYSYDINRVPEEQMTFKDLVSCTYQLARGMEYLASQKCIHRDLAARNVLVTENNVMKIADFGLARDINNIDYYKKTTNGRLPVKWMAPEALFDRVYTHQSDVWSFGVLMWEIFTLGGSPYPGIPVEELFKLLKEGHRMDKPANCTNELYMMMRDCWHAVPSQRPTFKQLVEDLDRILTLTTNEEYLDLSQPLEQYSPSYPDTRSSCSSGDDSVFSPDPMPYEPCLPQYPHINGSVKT
T4 sequence (P22607 411-806): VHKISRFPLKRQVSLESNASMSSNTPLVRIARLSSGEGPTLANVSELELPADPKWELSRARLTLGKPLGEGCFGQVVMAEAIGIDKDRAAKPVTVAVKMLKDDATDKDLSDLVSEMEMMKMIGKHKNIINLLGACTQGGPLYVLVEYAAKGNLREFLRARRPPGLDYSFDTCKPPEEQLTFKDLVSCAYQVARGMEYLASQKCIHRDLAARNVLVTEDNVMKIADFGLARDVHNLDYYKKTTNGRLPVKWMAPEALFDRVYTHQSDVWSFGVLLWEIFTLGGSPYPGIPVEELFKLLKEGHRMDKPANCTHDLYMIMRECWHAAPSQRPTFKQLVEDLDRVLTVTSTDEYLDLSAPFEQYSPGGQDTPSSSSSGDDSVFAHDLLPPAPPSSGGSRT
T3 sequence (P11362 407-822): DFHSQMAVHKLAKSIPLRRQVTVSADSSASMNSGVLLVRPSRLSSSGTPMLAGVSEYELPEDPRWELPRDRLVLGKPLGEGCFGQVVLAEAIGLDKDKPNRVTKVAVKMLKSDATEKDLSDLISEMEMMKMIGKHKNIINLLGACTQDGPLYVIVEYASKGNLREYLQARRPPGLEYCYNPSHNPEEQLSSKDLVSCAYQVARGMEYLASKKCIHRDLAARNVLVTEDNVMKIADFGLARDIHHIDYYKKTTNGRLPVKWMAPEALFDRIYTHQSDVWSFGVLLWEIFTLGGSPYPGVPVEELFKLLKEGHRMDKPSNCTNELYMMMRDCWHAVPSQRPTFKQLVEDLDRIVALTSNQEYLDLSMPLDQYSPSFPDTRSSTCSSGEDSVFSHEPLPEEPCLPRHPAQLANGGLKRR

Regarding `COCCNc1cc(NC(=O)N(CC2CCOC2)c2ccc(CO)c(C=O)n2)ncc1C#N` (racemic) [Example 5, 3-(5-cyano-4-((2-methoxyethyl)amino)pyridin-2-yl)-1-(6-formyl-5-(hydroxymethyl)pyridin-2-yl)-1-((tetrahydrofuran-3-yl)methyl)urea], the IC50 in test [1] amounted to 234 nM; in test [2] it was 66 nM.
Consider `CCN(C(=O)Nc1cc(OC(C)C)c(C#N)cn1)c1ccc(-c2cnn(C)c2)c(C=O)n1` [Example 12, 3-(5-cyano-4-isopropoxypyridin-2-yl)-1-ethyl-1-(6-formyl-5-(1-methyl-1H-pyrazol-4-yl)pyridin-2-yl)urea], for which the IC50 in test [3] (Homo sapiens, Huh-7, 72 h) came out at 2140 nM; in test [1], 33 nM; in test [2] it was 8.6 nM.
For `CC(C)Oc1cc(NC(=O)N(C)c2ccc(CN3CCCC3=O)c(C=O)n2)ncc1C#N` [Example 23, 3-(5-cyano-4-isopropoxypyridin-2-yl)-1-(6-formyl-5-((2-oxopyrrolidin-1-yl)methyl)pyridin-2-yl)-1-methylurea], in that order: 118 nM, 8.8 nM and 0.7 nM.
For `CC(C)Oc1cc(NC(=O)N(C)c2ccc(-c3cnn(C)c3)c(C=O)n2)ncc1C#N` [Example 25, 3-(5-cyano-4-isopropoxypyridin-2-yl)-1-(6-formyl-5-(1-methyl-1H-pyrazol-4-yl)pyridin-2-yl)-1-methylurea], the IC50 in test [2] was found to be 6.3 nM.
With `COCCNc1cc(NC(=O)N(C[C@H]2CCOC2)c2cccc(C=O)n2)ncc1C#N` (single isomer, unassigned) [Example 7], the IC50 in test [1] was 223 nM; in test [2] it was 5.1 nM.
The matching figures for `CC(C)Oc1cc(NC(=O)N(C)c2ccc(C(=O)O)c(C=O)n2)ncc1C#N` [Example 8, 6-(3-(5-cyano-4-isopropoxypyridin-2-yl)-1-methylureido)-2-formylnicotinic acid]: 737 nM and 1.6 nM.
For `N#Cc1ccc(Nc2ccccc2-c2cccc(C=O)n2)nc1` [Example 1, 6-((2-(6-formylpyridin-2-yl)phenyl)amino)nicotinonitrile], in test [2], the IC50 was determined as 330 nM.
For the compound `CC(C)Oc1cc(NC(=O)N(C)c2ccc(CN3CCN(C)CC3=O)c(C=O)n2)ncc1C#N` [Example 21, 3-(5-cyano-4-isopropoxypyridin-2-yl)-1-(6-formyl-5-((4-methyl-2-oxopiperazin-1-yl)methyl)pyridin-2-yl)-1-methylurea], the IC50 in test [3] (Homo sapiens, Huh-7, 72 h) came out at 878 nM; in test [1], 6.9 nM; in test [2], 4.8 nM.
`COCCNc1cc(NC(=O)N(C)c2cccc(C=O)n2)ncc1C#N` [Example 2, 3-(5-cyano-4-((2-methoxyethyl)amino)pyridin-2-yl)-1-(6-formylpyridin-2-yl)-1-methylurea]: the IC50 at FGFR2 (406-821), on FGFR1 (407-822) and on FGFR3 (411-806) was > 10000 nM in each case.
As to `CC(C)Oc1cc(NC(=O)N(C)c2ccc(CN3CCCC3)c(C=O)n2)ncc1C#N` [Example 29, 3-(5-cyano-4-isopropoxypyridin-2-yl)-1-(6-formyl-5-(pyrrolidin-1-ylmethyl)pyridin-2-yl)-1-methylurea], the IC50 in test [3] (Homo sapiens, Huh-7, 72 h) is > 3000 nM; in test [1], > 3000 nM; in test [2] it was 250 nM.
Turning to `CN(C(=O)Nc1ccc(C#N)cn1)c1ccc(CN2CCCC2=O)c(C=O)n1` [Example 19, 3-(5-cyanopyridin-2-yl)-1-(6-formyl-5-((2-oxopyrrolidin-1-yl)methyl)pyridin-2-yl)-1-methylurea], in test [2], the IC50 amounted to 78 nM.
As to `COCCNc1cc(NC(=O)N(CCOC)c2cccc(C=O)n2)ncc1C#N` [Example 3, 3-(5-cyano-4-((2-methoxyethyl)amino)pyridin-2-yl)-1-(6-formylpyridin-2-yl)-1-(2-methoxyethyl)urea], the IC50 against FGFR2 (406-821), against FGFR1 (407-822) and at FGFR3 (411-806) was > 10000 nM each time.
Consider `CC(C)Nc1cc(NC(=O)N(C)c2ccc(-c3cnn(C)c3)c(C=O)n2)ncc1C#N` [Example 14, 3-(5-cyano-4-(isopropylamino)pyridin-2-yl)-1-(6-formyl-5-(1-methyl-1H-pyrazol-4-yl)pyridin-2-yl)-1-methylurea], for which the IC50 in test [2] stood at 3.6 nM.
For the compound `COC1CCN(Cc2ccc(N(C)C(=O)Nc3cc(OC(C)C)c(C#N)cn3)nc2C=O)C1` (racemic) [Example 26, 3-(5-cyano-4-isopropoxypyridin-2-yl)-1-(6-formyl-5-((3-methoxypyrrolidin-1-yl)methyl)pyridin-2-yl)-1-methylurea], the IC50 in test [3] (Homo sapiens, Huh-7, 72 h) is > 3000 nM; in test [1] it was 501 nM; in test [2], 17 nM.
Turning to `COCCNc1cc(NC(=O)N(C[C@@H]2CCOC2)c2cccc(C=O)n2)ncc1C#N` (single isomer, unassigned) [Example 6], the values for the IC50 in test [1] and in test [2] were 140 nM and 4.7 nM, respectively.
As to `CN(C(=O)Nc1cc(NCC(C)(C)O)c(C#N)cn1)c1ccc(-c2cnn(C)c2)c(C=O)n1` [Example 22, 3-(5-cyano-4-((2-hydroxy-2-methylpropyl)amino)pyridin-2-yl)-1-(6-formyl-5-(1-methyl-1H-pyrazol-4-yl)pyridin-2-yl)-1-methylurea], the IC50 was > 3000 nM in test [3] (Homo sapiens, Huh-7, 72 h); 1800 nM in test [3]; 46 nM in test [1]; 5.7 nM in test [2].
Consider `COCCNc1cc(Nc2nccn2-c2ccc(-c3cnn(C)c3)c(C=O)n2)ncc1C(F)(F)F` [Example 27, 6-(2-((4-((2-methoxyethyl)amino)-5-(trifluoromethyl)pyridin-2-yl)amino)-1H-imidazol-1-yl)-3-(1-methyl-1H-pyrazol-4-yl)picolinaldehyde], for which the IC50 in test [3] (Homo sapiens, Huh-7, 72 h) was > 3000 nM; in test [1], 568 nM; in test [2], 340 nM.
